Series [1] relates to pigs, coronary injury with stenting. Briefly: Coronary injury and stent in pigs: hematology, blood chemistry, coagulation, bleeding and inflammation markers (Example 6). The settings on record: for ALT / AST / AlkPh / BUN / Creat / Glu / HGB / K / Na / PCV / Platelets / RBC / Tot. Prot / WBC: single animals and mean ± std. dev.
Series [2] deals with ADP-induced platelet aggregation. Briefly: Ex vivo ADP-induced platelet aggregation in platelet-rich plasma after dosing rabbits. Also noted: species or system rabbit. The settings on record: clopidogrel 10 mg/kg oral. The source says:
Blood samples taken at various time points were heparinized.
Data are presented as relative light transmission versus time.

For series [3] the test system is unchanged. Briefly: Ex vivo ADP-induced platelet aggregation in platelet-rich plasma in pigs (Example 5). Also noted: species or system pig.
Series [4] relates to dogs, coronary thrombotic occlusion. Description: Canine coronary thrombosis and fibrinolysis model, adjunctive treatment with rtPA (Example 7). It counts as in vivo, dog. Particulars: dogs. As for the experimental part: Thrombotic occlusion was induced by electrical injury to a coronary artery in dogs. […] Buccal mucosa bleeding times, PT, and aPTT were measured as indices of bleeding risk. After 24 hours of reperfusion, infarct size was determined by Evan's blue and triphenyltetrazolium chloride double staining. This protocol is illustrated in FIG. 7.

For series [5], the system named is rats, embolic stroke (thrombus injection into internal carotid artery). Description: Embolic stroke model in rats, apyrase agent with or without r-tPA (Example 1). Particulars: r-tPA 10 mg/kg alone; brains at 3 days. Type of series: in vivo, rat. As for the experimental part:
The following groups were included in this study:
(1) control (saline treated), n=11;
(2) apyrase agent at 0.75 mg/kg, n=4;
(3) apyrase agent at 2.25 mg/kg, n=4;
(4) r-tPA (at 10 mg/kg), n=4;
(5) apyrase agent at 0.75 mg/kg plus r-tPA (10 mg/kg) and
(6) apyrase agent at 2.25 mg/kg plus r-tPA (10 mg/kg) (n=10).
All the treatments were initiated at 2 h following thrombus injection into internal carotid artery. Infarct volume and behavioral deficit were determined at day 3 after the stroke.

For series [6], the system named is rats, thromboembolic stroke (MCA occlusion). Briefly: Rat model of thromboembolic stroke (MCA occlusion by preformed clot), apyrase agent plus aspirin (Example 2). Type of series: in vivo. The settings on record: for Neurological deficits, median (interquartile range 25th to 75th), modified Bederson score: n = 10. How it is done: In this study, four experimental groups were included (n=10):
(1) control, saline injected gastrically;
(2) aspirin, 1.25 mg/kg (equivalent to 100 mg/day dose in human) injected gastrically once a day, starting 3 days prior to middle cerebral artery (MCA) occlusion and also MCA occlusion until the end of each experiment;
(3) apyrase, dose at 0.75 mg/kg injected IV at 2 h after MCA occlusion;
(4) combination group, aspirin and apyrase agent.
In this clinically relevant embolic model, ischemic brain injury was induced by embolizing preformed clots into the middle cerebral artery (MCA). Ten microliters of blood were withdrawn into a catheter and retained for 15 min to allow formation of a clot. Once the clot was formed, the catheter was advanced 17 mm in the ICA until its tip was 1-2 mm away from the origin of the MCA. The preformed clot in the catheter was then injected, and the catheter was removed. […]
Infarct was measured in the brain section stained with 2,3,5-triphenyltetrazolium chloride (TTC) solution. The infarct volume was expressed as a percentage of the total volume from the ipsilateral hemisphere.
Brain swelling (edema) was determined using a formula: edema=(the volume of the right hemisphere—the volume of the left hemisphere)/the volume of the left hemisphere.
Neurological deficits were determined using a modified Bederson's scoring system as following: 0: no observable deficit; 1: forelimb flexion; 2: forelimb flexion plus decreased resistance to lateral push; 3: unidirectional circling; 4: unidirectional circling plus decreased level of consciousness.
Hemorrhagic transformation was quantified by detection of extracellular hemoglobin content in brain homogenates using Drabkin's reagents.

Series [7] deals with pigs, coronary injury with stenting. Description: Coronary injury (balloon overstretch) and bare metal stent in pigs: platelet accumulation and luminal stenosis (Example 6). It counts as in vivo, pig. As for the experimental part:
Coronary injury with or without stenting in pigs is regarded as the best preclinical model for simulation of human angioplasty (Touchard, A. G., et al., Thromb. Res. (2007) 120:477-484). One coronary artery was injured by balloon overstretch in each pig and the site of injury including some overlap with the non-injured vessel was covered with a single bare metal stent (BMS).
Accumulation of ^111In-labeled autologous platelets on the stents over the first 24 h was measured in 4/6 pigs in each group. Radiolabeled platelets were injected 15 min before the coronary catheterization and the hearts perfusion-fixed after 24 h to obtain the stented vessel segment for counting radiolabeled platelets.

[8] abbreviates: by the end of adjunctive therapy.
The mark [9] stands for this setting: aspirin 5 mg/kg, clopidogrel 4 mg/kg.

Several values for one entry are separate records, joined by “and”; a condition that tells them apart may be missing. Equal values may be shown once. Marks after values point to notes of the source that are not given here.

Consider heparin, for which the “Activated Clotting Time relative to baseline” value in series [1] (after heparin 150 U/kg) is on record as greater than 9 fold. Besides, the “Activated Clotting Time (ACT)” value in series [1] (after heparin 150 U/kg (baseline 119±15 sec, n=17)) worked out at 1114 ± 286 s.
Take `COC(=O)[C@H](c1ccccc1Cl)N1CCc2sccc2C1` [clopidogrel]: the “time after treatment at which significant effect on platelet aggregation was observed” value in series [2] is 5 h. Further, in series [3] (24 h after dosing), the “platelet aggregation by 24 h” value was “persistent inhibition of aggregation”. In addition, in series [3] (clopidogrel 8 mg/kg gavage plus aspirin and heparin), the “time after dosing at which significant inhibition of ADP-induced platelet aggregation began” value is reported as 5 h. Besides, the “buccal mucosa bleeding time” value in series [4] was “significantly prolonged”. Moreover, in series [4] (setting [8]), the PT result is “increased” and the aPTT entry is on record as “increased”. For the same molecule, the “blood loss from a standardized incision of the abdominal wall” value in series [1] (2 and 24 h, blood collected over 5 min) was “trend for an increase in blood loss by 24 h”. The “template bleeding times relative to apyrase agent or control pigs” value in series [1] (2 and 24 h, scalpel cut at the edge of the ear) is roughly 3 fold. Further, in series [1] (3, 8 and 24 h after gavage), the “PT compared to baseline” value is given as “increased significantly compared to baseline”. For the same molecule, in series [1] (during the time of heparinization), the aPTT entry is “the increase was significant only in clopidogrel-treated pigs”. In series [1], the ALT is 47 u/L and 65 u/L and 45 u/L (2×) and 43 u/L and 77 u/L; the AST was 61 u/L and 63 u/L and 57 u/L and 31 u/L and 44 u/L and 64 u/L; the AlkPh is 131 u/L and 111 u/L and 225 u/L and 180 u/L (2×) and 184 u/L; the BUN was 13 mg/dL and 12 mg/dL and 8 mg/dL and 7 mg/dL and 11 mg/dL and 5 mg/dL. Moreover, in series [1], the Creat was 0.9 mg/dL (4×) and 1 mg/dL (2×); the Glu was 20 mg/dL and 33 mg/dL and 69 mg/dL and 40 mg/dL (2×) and 30 mg/dL; the HGB is 7.6 g/dL and 7.8 g/dL and 6.7 g/dL and 9.2 g/dL and 9 g/dL and 8.5 g/dL; the K was 4.3 mmol/L and 4.2 mmol/L (2×) and 3.5 mmol/L and 4.4 mmol/L (2×). For the same molecule, in series [1], the Na is 131 mmol/L and 132 mmol/L and 119 mmol/L and 140 mmol/L and 134 mmol/L and 138 mmol/L; the PCV was 21.4% and 22.9% and 20.8% and 28% and 25% and 25.8%; the Platelets is 248 thns/uL and 347 thns/uL and 345 thns/uL and 294 thns/uL and 298 thns/uL and 225 thns/uL; the RBC was 4.3 mil/uL and 4.7 mil/uL (2×) and 4.6 mil/uL and 5.8 mil/uL and 5.5 mil/uL. In series [1], the “Tot. Prot” value was 4.8 g/dL and 5.2 g/dL and 4.2 g/dL and 4.5 g/dL and 4.7 g/dL and 4.6 g/dL; the WBC was 10.8 thns/uL and 16.1 thns/uL and 11.3 thns/uL and 16.9 thns/uL (2×) and 12 thns/uL. The template bleeding time entry in series [1] (summary of findings) is reported as “markedly increased”.
For the molecule “r-tPA: recombinant tissue plasminogen activator”, the “Hemorrhage #/total animals” value in series [5] was 5 out of 11 and 5/11.
Take `CC(=O)Oc1ccccc1C(=O)O` [aspirin]: the “Neurological deficits, median (interquartile range 25th to 75th), modified Bederson score” value (“Neurological deficits, median” for short) in series [6] (4 h after MCA occlusion) is reported as 3. In series [6] (4 h after MCA occlusion, listed as Aspirin (ASA)), the “Neurological deficits, median” value was 3 (2-4). Further, the “Neurological deficits, median” value in series [6] (8 h after MCA occlusion) was 2.5 (2-3). For the same molecule, the “infarct volume, percentage of the total volume of the ipsilateral hemisphere (mean±SD)” value in series [6] (24 h after MCA occlusion, aspirin 1.25 mg/kg gastrically once a day from 3 days prior, apyrase 0.75 mg/kg IV at 2 h) was 20.69±2.85%. In series [6] (24 h after MCA occlusion), the “Neurological deficits, median” value was “significantly less severe than the control group”. Besides, in series [6] (24 h after MCA occlusion, listed as Aspirin (ASA)), the “Neurological deficits, median” value is reported as 1.5 (1-2)*. In addition, the “extracellular hemoglobin content in brain homogenates (hemorrhagic transformation, Drabkin's reagents)” value in series [6] (24 h after ischemic injury) was found to be 0.93±0.11. Besides, the “brain edema (brain swelling)” value in series [6] (24 h after ischemic injury, aspirin 1.25 mg/kg, apyrase 0.75 mg/kg IV at 2 h) is 6.81±0.56%. This molecule also showed an average luminal stenosis in series [7] (30 days after stenting, six measurements in two pigs) of 29.6±6%. In series [7] (after 24 h, apyrase […] or clopidogrel 8 mg/kg, each with aspirin 10 mg/kg and heparin), the “accumulation of radiolabeled platelets on stented coronaries” value is on record as 5.5×10^5 platelets/mm^2. For the same molecule, in series [4] (setting [9]), the Re-occlusion rate is 100% and the Re-occlusion time is 81′. Besides, the “Reperfusion Time” value in series [4] (aspirin 5 mg/kg, clopidogrel 4 mg/kg, after r-tPA) is 23′. For the same molecule, in series [1], the ALT was 48 u/L and 25 u/L and 52 u/L and 50 u/L and 106 u/L; the AST was 45 u/L and 24 u/L and 38 u/L and 29 u/L and 211 u/L; the AlkPh was 95 u/L and 68 u/L and 132 u/L and 117 u/L and 235 u/L; the BUN was 12 mg/dL and 10 mg/dL and 4 mg/dL and 7 mg/dL and 11 mg/dL. For the same molecule, in series [1], the Creat is 1.1 mg/dL (4×) and 0.9 mg/dL; the Glu was 30 mg/dL and 38 mg/dL and 49 mg/dL and 20 mg/dL and 58 mg/dL; the HGB is 9.3 g/dL and 8.1 g/dL (3×) and 7.2 g/dL; the K is 3.5 mmol/L and 3.3 mmol/L and 3.6 mmol/L and 3.2 mmol/L and 2.7 mmol/L. In series [1], the Na is 135 mmol/L and 140 mmol/L and 138 mmol/L and 144 mmol/L and 117 mmol/L; the PCV was 26.8% and 27.7% and 23.9% and 22.8% and 20.7%; the Platelets was 301 thns/uL and 498 thns/uL and 355 thns/uL and 499 thns/uL and 213 thns/uL; the RBC was 5.19 mil/uL and 4.75 mil/uL and 4.9 mil/uL and 5.07 mil/uL and 4.52 mil/uL. Besides, in series [1], the “Tot. Prot” value was 6 g/dL and 4.5 g/dL and 4 g/dL and 5 g/dL and 4.2 g/dL; the WBC is 10.3 thns/uL and 16.4 thns/uL and 13.2 thns/uL and 13.9 thns/uL and 13.3 thns/uL.
